Measurements published in patent US6911443B2 (Bayer Aktiengesellschaft, priority 2000, dated 2005).

Each compound was assayed against T1, human Syk (GST-Syk) (Homo sapiens, UniProt P43405) (assay: Syk tyrosine kinase inhibitory assay). Details: Table 13.
T1 construct: A cDNA fragment encoding human Syk openreading frame was cloned; made in house; host or cells: Sf21 insect cells (baculovirus, transfer vector pAcG2T)
Type: biochemical
In short: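 GST-tagged human Syk from baculovirus/Sf21, 0.65 nM final, with 3 μM biotinylated 30-residue activation-loop peptide and 30 μM ATP in Tris pH 8.0/MgCl2 buffer, 0.25% DMSO; 1 h at room temperature. Phosphopeptide captured on streptavidin, detected by europium-labelled anti-phosphotyrosine 4G10 time-resolved fluorescence.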

| Activity grade | SMILES |
| --- | --- |
| C-D | Clc1ccc(-c2cc3ncnn3c(Sc3ccccc3)n2)cn1 [Example 14-9] |
| C-D | CCCCCCSc1nc(-c2ccc(OC)c(OC)c2)cc2nccn12 [Example 14-18] |

Same assay, conditions: Table 13; read-out: Activity grade

| IC50 [nM] | SMILES |
| --- | --- |
| 2000 to 10000 | c1ccc(Sc2nc(-c3ccccc3)cc3ncnn23)cc1 [Example 14-7] |
| 2000 to 10000 | Oc1ccc(Sc2nc(-c3ccccc3)cc3ncnn23)cc1 [Example 14-8] |
| < 500 | COc1ccc(-c2cc3ncnn3c(Sc3ccc(/C=C/C(=O)O)cc3)n2)cc1OC [Example 14-10] |
| < 500 | COc1ccc(-c2cc3ncnn3c(Sc3ccc(NCC(=O)O)cc3)n2)cc1OC [Example 14-11] |
| 500 to 2000 | COc1ccc(-c2cc3ncnn3c(Oc3ccc(CCC(=O)O)cc3)n2)cc1OC [Example 14-12] |
| 2000 to 10000 | COc1ccc(-c2cc3nccn3c(SCc3cccc(C(F)(F)F)c3)n2)cc1OC [Example 14-13] |
| 500 to 2000 | CCOC(=O)C(C)Sc1nc(-c2ccc(OC)c(OC)c2)cc2nccn12 (stereo not drawn) [Example 14-14] |
| 500 to 2000 | COc1ccc(-c2cc3nccn3c(SCc3ccc(Cl)cc3)n2)cc1OC [Example 14-15] |
| < 500 | COc1ccc(-c2cc3nccn3c(SCC(F)(F)F)n2)cc1OC [Example 14-16] |
| < 500 | CCCSc1nc(-c2ccc(OC)c(OC)c2)cc2nccn12 [Example 14-17] |
| 500 to 2000 | COc1ccc(-c2cc3nccn3c(SCCN(C(C)C)C(C)C)n2)cc1OC [Example 14-19] |
| < 500 | CCC(C)Sc1nc(-c2ccc(OC)c(OC)c2)cc2nccn12 (stereo not drawn) [Example 14-20] |
| < 500 | COc1ccc(-c2cc3nccn3c(SC3CCCC3)n2)cc1OC [Example 14-21] |
| < 500 | COc1ccc(-c2cc3nccn3c(SCC(C)C)n2)cc1OC [Example 14-22] |
| 500 to 2000 | CCC(C)CSc1nc(-c2ccc(OC)c(OC)c2)cc2nccn12 (stereo not drawn) [Example 14-23] |
| 500 to 2000 | COc1ccc(-c2cc3nccn3c(SCCNC(=O)OC(C)(C)C)n2)cc1OC [Example 14-24] |
| 500 to 2000 | COc1ccc(-c2cc3nccn3c(SCCc3ccccc3)n2)cc1OC [Example 14-25] |
| 500 to 2000 | CCCCCSc1nc(-c2ccc(OC)c(OC)c2)cc2nccn12 [Example 14-26] |
| < 500 | COc1ccc(-c2cc3nccn3c(SCCN(C)C)n2)cc1OC [Example 14-27] |
| 500 to 2000 | COc1ccc(-c2cc3nccn3c(SCCC(C)C)n2)cc1OC [Example 14-28] |
| < 500 | COc1ccc(-c2cc3nccn3c(SC3CCCCC3)n2)cc1OC [Example 14-29] |
| 500 to 2000 | COc1ccc(-c2cc3nccn3c(SCc3ccc(F)cc3)n2)cc1OC [Example 14-30] |
| < 500 | COc1ccc(-c2cc3nccn3c(SCc3cccs3)n2)cc1OC [Example 14-31] |
| < 500 | COc1ccc(-c2cc3nccn3c(SCCc3cnccn3)n2)cc1OC [Example 14-32] |
| < 500 | CNC(=O)CSc1nc(-c2ccc(OC)c(OC)c2)cc2nccn12 [Example 14-33] |
| 500 to 2000 | COc1ccc(-c2cc3nccn3c(Sc3ccc(CCC(=O)O)cc3C(N)=O)n2)cc1OC [Example 14-35] |
| 2000 to 10000 | COC(=O)c1cccnc1Nc1nc(-c2ccc(OC)c(OC)c2)cc2nccn12 [Example 14-36] |

Same assay, conditions: Table 14; read-out: Activity grade

| IC50 [nM] | SMILES |
| --- | --- |
| < 500 | COc1ccc(-c2cc3nccn3c(Sc3ccc(C(F)(F)F)cn3)n2)cc1OC [Example 15-1] |
| < 500 | COc1ccc(-c2cc3nccn3c(Sc3ccncc3C(=O)O)n2)cc1OC [Example 15-2] |
| < 500 | COc1ccc(-c2cc3nccn3c(Sc3ccc(SCC(=O)O)cc3)n2)cc1OC [Example 15-3] |
| 500 to 2000 | COc1ccc(-c2cc3nccn3c(NC3CCCCC3)n2)cc1OC [Example 15-4] |

Same assay, conditions: Table 15; read-out: Activity grade

| IC50 [nM] | SMILES |
| --- | --- |
| < 500 | COc1ccc(-c2cc3nccn3c(Sc3nnnn3C)n2)cc1OC [Example 16-1] |
| < 500 | COc1ccc(-c2cc3nccn3c(Sc3ccc(S(=O)(=O)N4CCCCC4)cc3)n2)cc1OC [Example 16-2] |
| < 500 | COc1ccc(-c2cc3nccn3c(Sc3ccc(S(=O)(=O)N4CCCC4)cc3)n2)cc1OC [Example 16-5] |
| < 500 | COc1ccc(-c2cc3nccn3c(Sc3ccncc3N)n2)cc1OC [Example 16-7] |

Same assay, conditions: Table 16; read-out: Activity grade

| IC50 [nM] | SMILES |
| --- | --- |
| 500 to 2000 | CCSc1nc(-c2ccc(OC)c(NCCCCN(C)C)c2)cc2nccn12 [Example 17-1] |
| 500 to 2000 | CCSc1nc(-c2ccc(OC)c(NC)c2)cc2nccn12 [Example 17-2] |
| < 500 | CCSc1nc(-c2ccc(NCCCN3CCCC3=O)c(OC)c2)cc2nccn12 [Example 17-3] |
| < 500 | CCSc1nc(-c2ccc(NCCCN3CCN(C)CC3)c(OC)c2)cc2nccn12 [Example 17-4] |
| 500 to 2000 | CCSc1nc(-c2ccc(OC)c(N(C)CCCN(C)C)c2)cc2nccn12 [Example 17-5] |
| < 500 | CCSc1nc(-c2ccc(OC)c(NCCCN(C)C)c2)cc2nccn12 [Example 17-6] |
| 500 to 2000 | CCSc1nc(-c2ccc(NCCN(C)C)c(OC)c2)cc2nccn12 [Example 17-7] |
| 500 to 2000 | CCSc1nc(-c2ccc(OC)c(NCCN(C)C)c2)cc2nccn12 [Example 17-8] |
| 2000 to 10000 | CCSc1nc(-c2ccc(NCc3ccccc3)c(OC)c2)cc2nccn12 [Example 17-9] |
| 500 to 2000 | CCSc1nc(-c2ccc(OCCOC)c(OC)c2)cc2nccn12 [Example 17-10] |
| < 500 | CCSc1nc(-c2ccc(NCCCn3ccnc3)c(OC)c2)cc2nccn12 [Example 17-11] |
| < 500 | CCSc1nc(-c2ccc(NCCCN3CCOCC3)c(OC)c2)cc2nccn12 [Example 17-12] |
| < 500 | CCSc1nc(-c2ccc(NCCCN(C)C)c(OC)c2)cc2nccn12 [Example 17-13] |
| 500 to 2000 | CCSc1nc(-c2ccc(NC)c(OC)c2)cc2nccn12 [Example 17-14] |
| < 500 | CCSc1nc(-c2ccc(N(C)C)c(OC)c2)cc2nccn12 [Example 17-15] |
| < 500 | COc1ccc(Nc2nc(-c3ccc(N4CCCC4)c(OC)c3)cc3nccn23)cc1 [Example 17-16] |
| < 500 | CCSc1nc(-c2ccc(N(C)CCCN3CCOCC3)c(OC)c2)cc2nccn12 [Example 17-17] |

Same assay, conditions: Table 17; IC50 classes; read-out: Activity grade

| IC50 [nM] | SMILES |
| --- | --- |
| 500 to 2000 | COc1ccc(-c2cc3nccn3c(NC(=O)c3ccccc3)n2)cc1OC [Example 16] |
| < 500 | COc1ccc(-c2cc3nccn3c(Sc3ccc(CCC(=O)N4CCOCC4)cc3)n2)cc1OC [Example 18] |
| < 500 | COc1ccc(-c2cc3nccn3c(Sc3ccc4c(c3)CCC(C(=O)O)C4)n2)cc1OC (stereo not drawn) [Example 19] |
| < 500 | COc1ccc(-c2cc3nccn3c(Sc3ccc(CCC(N)=O)cc3)n2)cc1OC [Example 20] |
| < 500 | CNC(=O)CCc1ccc(Sc2nc(-c3ccc(OC)c(OC)c3)cc3nccn23)cc1 [Example 21] |
| 500 to 2000 | COc1ccc(-c2cc3nccn3c(NC(=O)Nc3ccccc3)n2)cc1OC [Example 22] |
| < 500 | COc1ccc(-c2cc3nccn3c(Sc3ccc(CCC(=O)NCCC#N)cc3)n2)cc1OC [Example 23] |
| < 500 | COc1ccc(-c2cc3nccn3c(Sc3ccc(CCc4nnn[nH]4)cc3)n2)cc1OC [Example 24] |
| < 500 | COc1ccc(-c2cc3nccn3c(SCCN)n2)cc1OC [Example 25] |
| 2000 to 10000 | COc1ccc(-c2cc3nccn3c(SCC(=O)O)n2)cc1OC [Example 26] |
| < 500 | CCSc1nc(-c2ccc(OC)c([N+](=O)[O-])c2)cc2nccn12 [Example 27] |
| 500 to 2000 | CCSc1nc(-c2ccc(OC)c(OC)c2)cc2nc(C(N)=O)cn12 [Example 28] |
| < 500 | COc1ccc(-c2cc3nccn3c(Nc3ccc(CC(N)C(=O)OC(C)C)cc3)n2)cc1OC (stereo not drawn) [Example 29] |
| < 500 | COc1ccc(-c2cc3nccn3c(Nc3ccc(CC(N)C(=O)O)cc3)n2)cc1OC (stereo not drawn) [Example 30] |
| < 500 | COc1ccc(-c2cc3nccn3c(Nc3ccccc3-c3nnn[nH]3)n2)cc1OC [Example 31] |
| < 500 | COc1ccc(-c2cc3nccn3c(Nc3ccc(N(C)C)cc3C(N)=O)n2)cc1OC [Example 32] |
| < 500 | COc1ccc(-c2cc3nccn3c(Nc3ccc(N)cc3C(N)=O)n2)cc1OC [Example 33] |
| 500 to 2000 | COc1ccc(-c2cc3nccn3c(-c3ccccc3)n2)cc1OC [Example 34] |
| 2000 to 10000 | COc1ccc(-c2cc3nccn3c(Cc3ccccc3)n2)cc1OC [Example 35] |
| 2000 to 10000 | COc1ccc(-c2cc3nccn3c(N(C)c3ccncc3)n2)cc1OC [Example 36] |
| < 500 | COc1cc(-c2cc3nccn3c(Nc3ncccc3C(N)=O)n2)ccc1N1CCOCC1 [Example 38] |
| 500 to 2000 | COc1ccc(-c2cc3nccn3c(Nc3ccccc3)n2)cc1N [compound 1] |
| 2000 to 10000 | COc1ccc(-c2cc3nccn3c(N(C)c3ccccn3)n2)cc1OC [compound 4] |
| < 500 | COc1ccc(-c2cc3nccn3c(Nc3ccc(C(=O)N(C)CCO)cc3)n2)cc1OC [compound 6] |
| 2000 to 10000 | Cc1c(N)cccc1Oc1nc(-c2ccc(OC3CCCC3)c(O)c2)cc2ncnn12 [compound 15] |
| < 500 | COc1ccc(-c2cc3nccn3c(Sc3ccc(CCC(=O)N(C)C)cc3)n2)cc1OC [compound 17] |

Same assay, conditions: in vitro; compounds as yielded by solid phase synthesis, purity about 40 to 90%; read-out: Activity grade (IC50 class)

| IC50 [nM] | SMILES |
| --- | --- |
| < 500 | Cc1c(N)cccc1Oc1nc(-c2ccc(O)c(O)c2)cc2ncnn12 [Example 14] |
| < 500 | COc1ccc(-c2cc3nccn3c(NC(=O)c3ccccc3)n2)cc1OC [Example 16] |
| < 500 | CCSc1nc(-c2ccc(O)c(OC)c2)cc2nccn12 [material for Example 3, 4-(5-Ethylsulfanyl-imidazo[1,2-c]pyrimidin-7-yl)-2-methoxyphenol] |
| 2000 to 10000 | CCSc1nc(-c2ccc(O)c(O)c2)cc2nccn12 [material for Example 6, 4-(5-Ethylsulfanyl-imidazo[1,2-c]pyrimidin-7-yl)-benzene-1,2-diol] |
